Measurements taken from US10155802B2, “Locally-active anticoagulants and anti-inflammatory agents” (priority 2011, dated 2018).
“And” between values parts separate entries of the source, which are not always exact repeats. Identical values can stand only once. “Also recorded” adds a separate entry of the source.

What was measured:
Human α-thrombin = molecular target: T1, Human α-thrombin (Homo sapiens, UniProt P00734); assay: Inhibition of thrombin-catalyzed hydrolysis of chromogenic substrate S-2366 (inhibition constant Ki); format: biochemical; settings: for Ki: T = 37° C., enzyme kinetics, chromogenic substrate
T1 construct: Human α-thrombin was purchased from Haemotologic Technologies, Inc., VT, USA; purchased Haemotologic Technologies, Inc., VT, USA

thrombin = thrombin (Homo sapiens, UniProt P00734); assay: Cleavage of thrombin-sensitive peptides catalyzed by thrombin, followed by HPLC; format: biochemical; parameters: rapidly converts prothrombin into the ultimate protease thrombin; settings: 75 μM peptide, 23 nM thrombin, pH 7.6, 37° C.
[1] = test system: FeCl3-induced arterial thrombosis (carotid artery); assay: FeCl3-induced arterial model of thrombosis in rats (time to occlusion); format: in vivo; settings: rat, single bolus 0.2 mg/kg plus maintenance infusion 0.00433 mg/kg/min
Procedure: Male Sprague-Dawley rats (250-310 g; Charles River Laboratories, St-Constant, QC, Canada) were acclimated for at least 3 days prior to the start of the study. Animals were housed in microisolator cages and were kept on a 12-hr light/dark cycle with constant temperature and humidity. Food and water were provided ad libitum. Various anti-thrombotic agents and peptides of this invention were dissolved in saline (0.9% sodium chloride) prior to use.
The FeCl3-induced arterial model of thrombosis in rats was also generated as described by Wang and Xu (Wang 2005) with some modifications (Couture 2011). Briefly, rats were anesthetized with a 2.5% isoflurane/oxygen mixture and placed on a heat source (35-37° C.). An incision was made over the right carotid artery, and a segment of the artery was exposed via blunt dissection. A Doppler flow probe (Model MA1PRB, Transonic System Inc., Ithaca, N.Y., USA) connected to a perivascular flow module (TS420, Transonic System Inc., Ithaca, N.Y., USA) was then attached to the carotid artery to monitor blood flow. Data were collected and analyzed using the MP100 Biopac™ Systems (Biopac Systems, Santa Barbara, Calif., USA), and the AcgKnowledge™ software (Biopac Systems, Santa Barbara, Calif., USA), respectively. Baseline blood flow was recorded for a minimum of 15 minutes until readings stabilized. Aquasonic 100 gel (Parker Laboratories, Inc., Fairfield, N.J., USA) was added to help conductivity and any fluid accumulating at the site of surgery was removed during data sampling without touching the probe. […] One minute after drug administration, a piece of filter paper (Gel Blot Paper, GB003, Whatman, Piscataway, N.J., USA; 7 mm diameter) saturated with 20% FeCl3 (EMD Chemicals Inc., Gibbstown, N.J., USA) was placed on the exposed surface of the carotid artery and incubated for 3.5 minutes. During the application of FeCl3, the neck region was covered with aluminum foil. At the end of the incubation period, the filter paper was removed and the exposed carotid was covered with a saline-soaked gauze. Time to occlusion was defined as the time from the application of FeCl3 until blood flow decreased to zero. […] Preparing and processing each animal took approximately 1 hr and 7 animals were treated each day. Control animals were always included when the other treatments were being administered. For this reason, the number of animals in the control group is higher than that of the treated-groups.
Statistical analysis was conducted using GraphPad™ Prism (GraphPad Software Inc., San Diego Calif., USA). Data were analyzed using one-way ANOVA with post-hoc Bonferroni correction for multiple comparisons. The relationship between thrombus weight and thrombus volume was determined by linear regression. […]

[2] = test system: fresh blood withdrawn from rats with venous thrombosis; assay: Clotting time (aPTT) of fresh blood withdrawn from treated rats; format: in vivo; settings: rat, 0.2 mg/kg bolus + 0.00433 mg/kg/min infusion; 20 minutes after administration versus before
Procedure: FIG. 23 illustrates the clotting times (aPTT) determined for fresh blood withdrawn from rats with venous thrombosis at three time points, the first before drug administration and vessel injury, the second at 20 minutes after FeCl3 application and the third 60 minutes following injection of the respective thrombin inhibitors. Clotting times (aPTT) are shown for different rats administered with each thrombin inhibitor, ZIP4 for MH2-wZIP4, ZIP5 for MH2-wZIP5 and T218 for BRI-T218. Dosage levels for every compound were 0.2 mg/kg for the single-bolus injection and 0.00433 mg/kg/min for the maintenance infusion,
Terminal blood samples were analyzed for aPTT within 15 to 30 minutes of collection using a Coag DX Analyzer with aPTT citrate cartridges (IDEXX Laboratories, Westbrook, Me., USA).

Structure (SMILES) | reduction of Ki as compared to BRI-T207 (Human α-thrombin) | reduction of Ki as compared to MH2-wZIP4 (Human α-thrombin) | Ki (Human α-thrombin) | cleavage by thrombin (thrombin) | anti-thrombotic efficacy in arterial model [1] | clotting time (aPTT), systemic anticoagulant effect [2]
CC[C@H](C)[C@H](NC(=O)[C@H](CCC(=O)O)NC(=O)[C@H](CCC(=O)O)NC(=O)[C@H](Cc1ccccc1)NC(=O)[C@H](CC(=O)O)NC(=O)CNC(=O)[C@H](CCC(=O)O)NC(=O)[C@@H](NC(=O)[C@H](Cc1c[nH]c2ccccc12)NC(=O)[C@@H](NC(=O)[C@H](Cc1c[nH]c2ccccc12)NC(=O)[C@@H](NC(=O)[C@H](CCCCN)NC(=O)[C@@H](NC(=O)[C@H](C)NC(=O)[C@H](CC(=O)O)NC(=O)[C@H](CC(=O)O)NC(=O)[C@H](Cc1c[nH]c2ccccc12)NC(=O)[C@@H](NC(=O)[C@H](Cc1c[nH]c2ccccc12)NC(=O)[C@H](CCC(=O)O)NC(=O)CNC(=O)[C@H](CC(=O)O)NC(=O)[C@@H](NC(=O)[C@H](Cc1ccccc1)NC(=O)[C@H](CCCNC(=N)N)NC(=O)[C@@H]1CCCN1C(=O)[C@H](CCCNC(=N)N)NC(=O)[C@@H]1CCCN1C(=O)[C@H](N)Cc1ccccc1)[C@@H](C)O)[C@@H](C)O)[C@@H](C)O)[C@@H](C)O)[C@@H](C)O)[C@@H](C)O)C(=O)N1CCC[C@H]1C(=O)N[C@@H](CCC(=O)O)C(=O)N[C@@H](CCC(=O)O)C(=O)N[C@@H](Cc1ccc(O)cc1)C(=O)N[C@@H](CC(C)C)C(=O)O [BRI-T208] | about 13 fold | approximately 5 fold | ~28 nM and 28 nM | significantly more resistant to thrombin cleavage than BRI-T218 |  | 
CC[C@H](C)[C@H](NC(=O)[C@H](CCCNC(=N)N)NC(=O)[C@@H]1CCCN1C(=O)[C@H](N)Cc1ccccc1)C(=O)N[C@@H](CCCNC(=N)N)C(=O)N[C@@H](Cc1ccccc1)C(=O)N[C@H](C(=O)N[C@@H](CC(=O)O)C(=O)NCC(=O)N[C@@H](CCC(=O)O)C(=O)N[C@@H](Cc1c[nH]c2ccccc12)C(=O)N[C@H](C(=O)N[C@@H](Cc1c[nH]c2ccccc12)C(=O)N[C@@H](CC(=O)O)C(=O)N[C@@H](CC(=O)O)C(=O)N[C@@H](C)C(=O)N[C@H](C(=O)N[C@@H](CCCCN)C(=O)N[C@H](C(=O)N[C@@H](Cc1c[nH]c2ccccc12)C(=O)N[C@H](C(=O)N[C@@H](Cc1c[nH]c2ccccc12)C(=O)N[C@H](C(=O)N[C@@H](CCC(=O)O)C(=O)NCC(=O)N[C@@H](CC(=O)O)C(=O)N[C@@H](Cc1ccccc1)C(=O)N[C@@H](CCC(=O)O)C(=O)N[C@@H](CCC(=O)O)C(=O)N[C@H](C(=O)N1CCC[C@H]1C(=O)N[C@@H](CCC(=O)O)C(=O)N[C@@H](CCC(=O)O)C(=O)N[C@@H](Cc1ccc(O)cc1)C(=O)N[C@@H](CC(C)C)C(=O)O)[C@@H](C)CC)[C@@H](C)O)[C@@H](C)O)[C@@H](C)O)[C@@H](C)O)[C@@H](C)O)[C@@H](C)O [BRI-T218] |  |  | ~14 nM and 14 nM | completely converted to the cleavage products within two hours; also recorded: almost completion of the cleavage reaction after 2 hours of incubation | appears to restore the anti-thrombotic activity; also recorded: increases the efficacy | only a slight prolongation of the clotting time (aPTT)
